In patent US20160158200A1, “Combinations of Hepatitis C Virus Inhibitors” (priority 2013, published 2016):

Tested on: HCV genotype-1a variant with glutamine 30 changed to glutamate in the NS5A protein
Format: cell-based
Conditions: test compound titrated with BMS-790052 fixed at 200 nM; genotype 1a Q30E replicon
Text: The NS5A synergistic inhibitory effect of test compounds can be determined using various amounts of an NS5A-targeting compound with titration of a second compound of interest. […] In one embodiment, the HCV genotype strain can be genotype 1a containing a change at amino acid 30 of the NS5A protein consisting of glutamine to glutamate. The test compound can be chosen from compounds listed above or from others present in the literature.

| Compound | Fold-Synergistic 1a (Q30E) |
| --- | --- |
| CC(C)CC(=O)N1[C@@H]2C[C@@H]2C[C@H]1c1nc(-c2ccc(-c3ccc(-c4c[nH]c([C@@H]5C[C@H]6C[C@H]6N5C(=O)CC(C)C)n4)cc3)cc2)c[nH]1 [Compound P-50] | <10 fold |
| CC(C)(C)OC(=O)N1CC(F)(F)CC1(C)C(=O)N[C@H](c1nc(-c2ccc(-c3ccc(-c4c[nH]c([C@@H](NC(=O)C5(C)CC(F)(F)CN5C(=O)OC(C)(C)C)C(C)(C)C)n4)cc3)cc2)c[nH]1)C(C)(C)C (single isomer, unassigned) [Compound W-76] | >100 fold |
| CC(C)[C@H](NC(=O)/C=C/c1ccccc1)c1ncc(-c2ccc(-c3ccc(-c4cnc([C@@H](NC(=O)/C=C/c5ccccc5)C(C)C)[nH]4)cc3)cc2)[nH]1 [Compound S-43] | >100 fold |
| C[C@H]1CCN(C(=O)C(=O)N2C(C)(C)CCCC2(C)C)C1c1nc(-c2ccc(-c3ccc(-c4c[nH]c(C5[C@@H](C)CCN5C(=O)C(=O)N5C(C)(C)CCCC5(C)C)n4)cc3)cc2)c[nH]1 (some centres unmarked) [Compound W-249] | >100 fold |
| CC(=O)N(C)C1(C(=O)N[C@H](c2nc(-c3ccc(-c4ccc(-c5c[nH]c([C@@H](NC(=O)C6(N(C)C(C)=O)CC6)C(C)(C)C)n5)cc4)cc3)c[nH]2)C(C)(C)C)CC1.O=C(O)C(F)(F)F.O=C(O)C(F)(F)F [Compound L-11] | >100 fold |
| COc1ccccc1C1OC(=O)CC1C(=O)NC(c1nc(-c2ccc(-c3ccc(-c4c[nH]c(C(NC(=O)C5CC(=O)OC5c5ccccc5OC)C(C)(C)C)n4)cc3)cc2)c[nH]1)C(C)(C)C (mixture of isomers) [Compound S-263] | >10 fold |
| C[C@@H](C(=O)N[C@H](c1nc(-c2ccc(-c3ccc(-c4c[nH]c([C@@H](NC(=O)[C@H](C)c5ccccc5)C(C)(C)C)n4)cc3)cc2)c[nH]1)C(C)(C)C)c1ccccc1 [Compound N-61] | >100 fold |
| CC(C)(C)[C@H](NC(=O)[C@@]1(N)C[C@@H]1c1ccccc1)c1nc(-c2ccc(-c3ccc(-c4c[nH]c([C@@H](NC(=O)[C@@]5(N)C[C@@H]5c5ccccc5)C(C)(C)C)n4)cc3)cc2)c[nH]1 [Compound W-41] | >100 fold |
| CC(C)(C)[C@H](NC(=O)C1(NC(=O)C2CC2)CCCCC1)c1nc(-c2ccc(-c3ccc(-c4c[nH]c([C@@H](NC(=O)C5(NC(=O)C6CC6)CCCCC5)C(C)(C)C)n4)cc3)cc2)c[nH]1 [Compound W-264] | >100 fold |
| CN(C(=O)OC(C)(C)C)C1(C(=O)N2CCC(C)(C)C2c2nc(-c3ccc(-c4ccc(-c5c[nH]c(C6N(C(=O)C7(N(C)C(=O)OC(C)(C)C)CC7)CCC6(C)C)n5)cc4)cc3)c[nH]2)CC1 (centres unmarked) [Compound W-226] | >10 fold |
| O=C(C(=O)N1C[C@H](O)C[C@H]1c1nc(-c2ccc(-c3ccc(-c4c[nH]c([C@@H]5C[C@@H](O)CN5C(=O)C(=O)N5CCC(F)(F)CC5)n4)cc3)cc2)c[nH]1)N1CCC(F)(F)CC1 [Compound L-142] | >100 fold |
| CC(C)CCC(=O)N[C@H](c1ncc(-c2ccc(-c3ccc(-c4cnc([C@@H](NC(=O)CCC(C)C)C(C)C)[nH]4)cc3)cc2)[nH]1)C(C)C [Compound S-32] | >100 fold |
| COc1ccc2c(C(=O)N3CCC[C@H]3c3ncc(-c4ccc(-c5ccc(-c6cnc([C@@H]7CCCN7C(=O)c7nc(Cl)cc8cc(OC)ccc78)[nH]6)cc5)cc4)[nH]3)nc(Cl)cc2c1 [Compound S-204] | >100 fold |
| O=C(c1nccc2c(Cl)cccc12)N1CCC[C@H]1c1ncc(-c2ccc(-c3ccc(-c4cnc([C@@H]5CCCN5C(=O)c5nccc6c(Cl)cccc56)[nH]4)cc3)cc2)[nH]1 [Compound S-206] | >100 fold |
| CC(C)(C)[C@H](NC(=O)C(=O)N(CCC#N)C1CC1)c1nc(-c2ccc(-c3ccc(-c4c[nH]c([C@@H](NC(=O)C(=O)N(CCC#N)C5CC5)C(C)(C)C)n4)cc3)cc2)c[nH]1 [Compound W-48] | >100 fold |
| CC(C)(C)OC(=O)NC1(C(=O)N[C@H](c2nc(-c3ccc(-c4ccc(-c5c[nH]c([C@@H](NC(=O)C6(NC(=O)OC(C)(C)C)CCCC6)C(C)(C)C)n5)cc4)cc3)c[nH]2)C(C)(C)C)CCCC1.O=C(O)C(F)(F)F.O=C(O)C(F)(F)F [Compound L-6] | >100 fold |
| CC(C)[C@H](NC(=O)C(C)(C)CO)c1ncc(-c2ccc(-c3ccc(-c4cnc([C@@H](NC(=O)C(C)(C)CO)C(C)C)[nH]4)cc3)cc2)[nH]1 [Compound P-67] | >100 fold |
| CC(C)[C@H](NC(=O)C1CCC(F)(F)CC1)c1ncc(-c2ccc(-c3ccc(-c4cnc([C@@H](NC(=O)C5CCC(F)(F)CC5)C(C)(C)C)[nH]4)cc3)cc2)[nH]1 [Compound Y-42] | >100 fold |
| COC(CO)(CC(C)C)C(=O)N[C@H](c1nc(-c2ccc(-c3ccc(-c4c[nH]c([C@@H](NC(=O)C(CO)(CC(C)C)OC)C(C)(C)C)n4)cc3)cc2)c[nH]1)C(C)(C)C (single isomer, unassigned) [Compound N-160C] | >100 fold |

| Compound | Fold-Synergistic 1a (Q30E) |
| --- | --- |
| CC1(C)CCCC(C)(C(=O)N[C@H](c2nc(-c3ccc(-c4ccc(-c5c[nH]c([C@@H](NC(=O)C6(C)CCCC(C)(C)O6)C(C)(C)C)n5)cc4)cc3)c[nH]2)C(C)(C)C)O1 (single isomer, unassigned) [Compound W-167] | >100 fold |
| CC(C)[C@H](NC(=O)C(O)(CF)CF)c1nc(-c2ccc(-c3ccc(-c4c[nH]c([C@@H](NC(=O)C(O)(CF)CF)C(C)C)n4)cc3)cc2)c[nH]1 [Compound N-142] | >100 fold |
| CC1([C@H](NC(=O)C(=O)N2CCC(C(F)(F)F)CC2)c2nc(-c3ccc(-c4ccc(-c5c[nH]c([C@@H](NC(=O)C(=O)N6CCC(C(F)(F)F)CC6)C6(C)CC6)n5)cc4)cc3)c[nH]2)CC1 [Compound W-59] | >100 fold |
| CC1(C)C2CCC(C(=O)N[C@H](c3nc(-c4ccc(-c5ccc(-c6c[nH]c([C@@H](NC(=O)C78CCC(C7)C(C)(C)C8O)C7(C)CC7)n6)cc5)cc4)c[nH]3)C3(C)CC3)(C2)C1O (single isomer, unassigned) [Compound Y-119] | >100 fold |
| CC(C)[C@H](NC(=O)C(C)(C)C)c1ncc(-c2ccc(-c3ccc(-c4cnc([C@@H](NC(=O)C(C)(C)C)C(C)C)[nH]4)c(OC(F)F)c3)cc2)[nH]1 [Compound Y-11] | >100 fold |
| CC(C)(C)[C@H](NC(=O)C(=O)N1CCCCCC1)c1nc(-c2ccc(-c3ccc(-c4c[nH]c([C@@H](NC(=O)C(=O)N5CCCCCC5)C(C)(C)C)n4)cc3)cc2)c[nH]1 [Compound W-32] | >100 fold |
| COC(C)(CCO)C(=O)N[C@H](c1nc(-c2ccc(-c3ccc(-c4c[nH]c([C@@H](NC(=O)C(C)(CCO)OC)C(C)(C)C)n4)cc3)cc2)c[nH]1)C(C)(C)C (single isomer, unassigned) [Compound W-257] | >100 fold |
| COCC(NC(=O)C1(C(F)(F)F)CCC1)c1nc(-c2ccc(-c3ccc(-c4c[nH]c(C(COC)NC(=O)C5(C(F)(F)F)CCC5)n4)cc3)cc2)c[nH]1 [Compound L-104] | >100 fold |
| CC(C)[C@H](NC(=O)C(F)(F)c1ccccc1)c1ncc(-c2ccc(-c3ccc(-c4cnc([C@@H](NC(=O)C(F)(F)c5ccccc5)C(C)C)[nH]4)cc3)cc2)[nH]1 [Compound P-97] | >100 fold |
| CC1(C(NC(=O)C(C)(C)C(O)C2CC2)c2nc(-c3ccc(-c4ccc(-c5c[nH]c(C(NC(=O)C(C)(C)C(O)C6CC6)C6(C)CC6)n5)cc4)cc3)c[nH]2)CC1 (mixture of isomers) [Compound N-150] | >100 fold |
| CC(C)(C)[C@H](NC(=O)c1ccc(Cl)s1)c1nc(-c2ccc(-c3ccc(-c4c[nH]c([C@@H](NC(=O)c5ccc(Cl)s5)C(C)(C)C)n4)cc3)cc2)c[nH]1 [Compound N-65] | >100 fold |
| CC(C)[C@H](NC(=O)CC1CCCC1)c1ncc(-c2ccc(-c3ccc(-c4cnc([C@@H](NC(=O)CC5CCCC5)C(C)C)[nH]4)cc3)cc2)[nH]1 [Compound S-3] | >100 fold |
| CC1(C(=O)N[C@H](c2nc(-c3ccc(-c4ccc(-c5c[nH]c([C@@H](NC(=O)C6(C)CCCCC6O)C(C)(C)C)n5)cc4)cc3)c[nH]2)C(C)(C)C)CCCCC1O (single isomer, unassigned) [Compound Y-106] | >100 fold |
| COC(C)(C)C(=O)N[C@H](c1nc(-c2ccc(-c3ccc(-c4c[nH]c([C@@H](NC(=O)C(C)(C)OC)C(C)C)n4)c(F)c3)cc2)c[nH]1)C(C)C.O=C(O)C(F)(F)F [Compound N-87] | >100 fold |
| CC(C)[C@H](NC(=O)Cc1ccccc1Cl)c1ncc(-c2ccc(-c3ccc(-c4cnc([C@@H](NC(=O)Cc5ccccc5Cl)C(C)C)[nH]4)cc3)cc2)[nH]1 [Compound S-38] | >100 fold |
| Cc1ccc(CC(=O)N[C@H](c2ncc(-c3ccc(-c4ccc(-c5cnc([C@@H](NC(=O)Cc6ccc(C)cc6)C(C)C)[nH]5)cc4)cc3)[nH]2)C(C)C)cc1 [Compound S-42] | >100 fold |
| CC(C)COC(=O)N[C@@H](C(=O)N[C@H](c1ncc(-c2ccc(-c3ccc(-c4cnc([C@@H](NC(=O)[C@H](NC(=O)OCC(C)C)C(C)C)C(C)C)[nH]4)cc3)cc2)[nH]1)C(C)C)C(C)C [Compound S-246] | >100 fold |
| CC(C)(C)C(=O)NC(c1nc(-c2ccc(-c3ccc(-c4c[nH]c(C(NC(=O)C(C)(C)C)C5(C(F)(F)F)CC5)n4)cc3)cc2)c[nH]1)C1(C(F)(F)F)CC1 (single isomer, unassigned) [Compound N-107A] | >100 fold |
| CO[C@H](C(=O)N[C@H](c1ncc(-c2ccc(-c3ccc(-c4cnc([C@@H](NC(=O)[C@@H](OC)c5ccccc5)C(C)C)[nH]4)cc3)cc2)[nH]1)C(C)C)c1ccccc1 [Compound P-85] | >100 fold |
